d = 2'-deoxy (DNA); r = 2'-OH (RNA); f = 2'-fluoro
What was measured:
[1] = UV thermal melting temperatures of mUNA 12-mer duplexes; assay type: physicochemical; settings: for ΔTm (° C.): relative to unmodified duplex; for Tm (° C.)a / Tm (° C.)b: mUNA 12-mer duplexes, 2.0 μM each strand, pH 7.4
From the text: (§1) Values were reported as the maximum of the first derivative and are the average of at least two experiments.

[2] = UV thermal melting temperatures of TNA 12-mer duplexes; assay type: physicochemical; settings: 1×PBS; for ΔTm (° C.): relative to unmodified duplex; for Tm (° C.): TNA 12-mer duplexes, 2.0 μM each strand, pH 7.4
From the text: Values were reported as the maximum of the first derivative and are the average of at least two experiments. […] The structures x and y are shown here:
as §1

## AD-64366.2 (sense UACAGUCUAUGU; antisense ACAUAGACUGUA; RNA, backbone not given here)
[1]; 1x PBS
  ΔTm (° C.): 0.0 °C
  Tm (° C.)a: 52.1 °C
[1]; 8×PBS
  ΔTm (° C.): 0.0 °C
  Tm (° C.)b: 61.1 °C

## AD-64366.3 (sense UACAGUCUAUGU; antisense ACAUAGACUGUA; RNA, backbone not given here)
[2]
  ΔTm (° C.): 0 °C
  Tm (° C.): 52.57 °C

## AD-64366.4 (sense UACAGUCUAUGU; antisense ACAUAGACUGUA; RNA, backbone not given here)
[2]
  ΔTm (° C.): 0 °C
  Tm (° C.): 52.62 °C

## AD-64367.2 (sense TACAGTCTATGT; antisense ACATAGACTGTA; DNA, backbone not given here)
[1]; 8×PBS
  ΔTm (° C.): 0.0 °C
  Tm (° C.)b: 49.1 °C
[1]; 1x PBS
  Tm (° C.)a: 43.1 °C

## AD-64367.3 (sense TACAGTCTATGT; antisense ACATAGACTGTA; DNA, backbone not given here)
[2]
  ΔTm (° C.): 0 °C
  Tm (° C.): 42.42 °C

## AD-64367.4 (sense TACAGTCTATGT; antisense ACATAGACTGTA; DNA, backbone not given here)
[2]
  ΔTm (° C.): 0 °C
  Tm (° C.): 42.67 °C

## AD-64980.2 (sense UACAGUCUAUGU; antisense ACAUAGACUGUA; siRNA; one 2'-fluoro U in sense strand, plain letters not given here, further chemistry not given here)
[2]
  ΔTm (° C.): 0.52 °C
  Tm (° C.): 53.14 °C

## AD-64981.2 (sense TACAGUCTATGT; antisense ACATAGACTGTA; siRNA; sense: sugars from the 5' end d5 f1 d6, backbone not given here; antisense: DNA, backbone not given here)
[2]
  ΔTm (° C.): −2.615 °C
  Tm (° C.): 40.055 °C

## AD-72585.2 (sense UACAGTCUAUGU; antisense ACAUAGACUGUA; siRNA; one TNA thymine in sense strand, plain letters not given here, further chemistry not given here)
[2]
  ΔTm (° C.): −4.825 °C
  Tm (° C.): 47.745 °C

## AD-72586.2 (sense TACAGTCTATGT; antisense ACATAGACTGTA; siRNA; chemistry not fully specified)
[2]
  ΔTm (° C.): 2.1 °C
  Tm (° C.): 40.32 °C

## AD-72587.2 (sense UACAGUCUAUGU; antisense ACAUAGACUGUA; siRNA; one TNA cytidine in sense strand, plain letters not given here, further chemistry not given here)
[2]
  ΔTm (° C.): −5.45 °C
  Tm (° C.): 47.12 °C

## AD-649408.1 (sense UACAGUCUAUGU; antisense ACAUAGACUGUA; chemistry not fully specified)
[2]
  ΔTm (° C.): −4.5 °C
  Tm (° C.): 48.07 °C

## AD-649409.1 (sense UACAGUCUAUGU; antisense ACAUAGACUGUA; chemistry not fully specified)
[2]
  ΔTm (° C.): −4.9 °C
  Tm (° C.): 47.67 °C

## AD-649411.1 (sense UACAGUCUAUGU; antisense ACAUAGACUGUA; chemistry not fully specified)
[2]
  ΔTm (° C.): −11 °C
  Tm (° C.): 41.57 °C

## AD-649412.1 (sense UACAGUCUAUGU; antisense ACAUAGACUGUA; sense: RNA, backbone not given here; antisense: chemistry not given here; further chemistry not fully specified)
[2]
  ΔTm (° C.): 0.55 °C
  Tm (° C.): 53.17 °C

## AD-649414.1 (sense UACAGUCUAUGU; antisense ACAUAGACUGUA; chemistry not fully specified)
[2]
  ΔTm (° C.): 0.45 °C
  Tm (° C.): 53.07 °C

## AD-649415.1 (sense UACAGUCUAUGU; antisense ACAUAGACUGUA; sense: sugars from the 5' end r5 f1 r6, backbone not given here; antisense: sugars from the 5' end r6 f1 r5, backbone not given here)
[2]
  ΔTm (° C.): 1.6 °C
  Tm (° C.): 54.22 °C

## AD-649416.1 (sense UACAGUCUAUGU; antisense ACAUAGACUGUA; sense: RNA, backbone not given here; antisense: sugars from the 5' end r5 f1 r6, backbone not given here)
[2]
  ΔTm (° C.): 2.7 °C
  Tm (° C.): 55.32 °C

## AD-649417.1 (sense TACAGTCTATGT; antisense ACATAGACTGTA; chemistry not fully specified)
[2]
  ΔTm (° C.): 0.65 °C
  Tm (° C.): 43.07 °C

## AD-649418.1 (sense TACAGTCTATGT; antisense ACATAGACTGTA; sense: chemistry not given here; antisense: DNA, backbone not given here; further chemistry not fully specified)
[2]
  ΔTm (° C.): −1.78 °C
  Tm (° C.): 40.64 °C

## AD-649419.1 (sense TACAGTCTATGT; antisense ACATAGACTGTA; chemistry not fully specified)
[2]
  ΔTm (° C.): 1.8 °C
  Tm (° C.): 44.22 °C

## AD-649420.1 (sense TACAGTCTATGT; antisense ACATAGACTGTA; chemistry not fully specified)
[2]
  ΔTm (° C.): −2.5 °C
  Tm (° C.): 39.92 °C

## AD-649421.1 (sense TACAGTCTATGT; antisense ACATAGACTGTA; chemistry not fully specified)
[2]
  ΔTm (° C.): −2.365 °C
  Tm (° C.): 40.055 °C

## AD-649422.1 (sense TACAGTCTATGT; antisense ACATAGACTGTA; sense: DNA, backbone not given here; antisense: sugars from the 5' end d6 f1 d5, backbone not given here)
[2]
  ΔTm (° C.): −0.4 °C
  Tm (° C.): 42.27 °C

## AD-649423.1 (sense TACAGTCTATGT; antisense ACATAGACTGTA; sense: sugars from the 5' end d6 f1 d5, backbone not given here; antisense: DNA, backbone not given here)
[2]
  ΔTm (° C.): −0.325 °C
  Tm (° C.): 42.345 °C

## AD-649424.1 (sense TACAGTCTATGT; antisense ACATAGACTGTA; sense: DNA, backbone not given here; antisense: sugars from the 5' end d5 f1 d6, backbone not given here)
[2]
  ΔTm (° C.): 0.275 °C
  Tm (° C.): 42.945 °C

## AD-649425.1 (sense TACAGUCTATGT; antisense ACATAGACTGTA; sense: sugars from the 5' end d5 f1 d6, backbone not given here; antisense: sugars from the 5' end d6 f1 d5, backbone not given here)
[2]
  ΔTm (° C.): −2.5 °C
  Tm (° C.): 40.17 °C

## AD-649426.1 (sense TACAGTCTATGT; antisense ACATAGACTGTA; sense: sugars from the 5' end d6 f1 d5, backbone not given here; antisense: sugars from the 5' end d5 f1 d6, backbone not given here)
[2]
  ΔTm (° C.): 0.1 °C
  Tm (° C.): 42.77 °C

From patent US20250207131A1, “MODIFIED RNA AGENTS WITH REDUCED OFF-TARGET EFFECT” (Alnylam Pharmaceuticals, Inc., priority 2018, published 2025)
